Reference: ChEMBL document CHEMBL1201862, “PubChem BioAssay data set” (2004)
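Step 1: Grow cells in 96-well plates. Step 2: Expose to compound for 48 hours at 5 concentrations. Step 3: Interpolate endpoints linearly; if unreached, use highest concentration. GI50 is the concentration that inhibits growth by half.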 The source made the active and inactive calls. Cut-off read from the data, not from the text of the source: active = GI50 up to about 1.1 µM and inactive = higher.

Experiments:
Assay in all cases: DTP human tumour cell line panel, 48 h
SNB-19 = tested on: SNB-19
A549 = tested on: A549
CAKI-1 = tested on: CAKI-1
HOP-92 = tested on: HOP-92
NCI-H226 = tested on: NCI-H226
SF-268 = tested on: SF-268
HL-60 = tested on: HL-60
Hs-578T = tested on: Hs-578T
SNB-75 = tested on: SNB-75
SK-OV-3 = tested on: SK-OV-3
MDA-MB-435 = tested on: MDA-MB-435
HT-29 = tested on: HT-29
MCF7 = tested on: MCF7
SW-620 = tested on: SW-620
SF-295 = tested on: SF-295
T47D = tested on: T47D
786-0 = tested on: 786-0
TK-10 = tested on: TK-10
OVCAR-8 = tested on: OVCAR-8
COLO 205 = tested on: COLO 205
EKVX = tested on: EKVX
SK-MEL-2 = tested on: SK-MEL-2
SK-MEL-5 = tested on: SK-MEL-5
SN12C = tested on: SN12C
UACC-62 = tested on: UACC-62
SF-539 = tested on: SF-539
K562 = tested on: K562
UACC-257 = tested on: UACC-257
U-251 = tested on: U-251
ACHN = tested on: ACHN
M14 = tested on: M14
IGROV-1 = tested on: IGROV-1
NCI-H522 = tested on: NCI-H522
BT-549 = tested on: BT-549
HCC 2998 = tested on: HCC 2998
A498 = tested on: A498
MDA-N = tested on: MDA-N
HCT-15 = tested on: HCT-15
NCI-H460 = tested on: NCI-H460
OVCAR-4 = tested on: OVCAR-4
HCT-116 = tested on: HCT-116
OVCAR-5 = tested on: OVCAR-5
MDA-MB-231 = tested on: MDA-MB-231
UO-31 = tested on: UO-31
KM12 = tested on: KM12
RXF 393 = tested on: RXF 393
SK-MEL-28 = tested on: SK-MEL-28
DU-145 = tested on: DU-145
HOP-62 = tested on: HOP-62
NCI-H23 = tested on: NCI-H23
PC-3 = tested on: PC-3
LOX IMVI = tested on: LOX IMVI
CCRF-CEM = tested on: CCRF-CEM
NCI/ADR-RES = tested on: NCI/ADR-RES
OVCAR-3 = tested on: OVCAR-3
MOLT-4 = tested on: MOLT-4
Malme-3M = tested on: Malme-3M
RPMI-8226 = tested on: RPMI-8226
SR = tested on: SR

CCN(CC)Cc1cc(Nc2c3ccccc3nc3c2[nH]c2ccccc23)cc(CN(CC)CC)c1O
GI50 (SNB-19): 1.21 µM (inactive) | GI50 (A549): 0.566 µM (active) | GI50 (CAKI-1): 1.77 µM (inactive) | GI50 (HOP-92): 1.14 µM (inactive) | GI50 (NCI-H226): 2.45 µM (inactive) | GI50 (SF-268): 0.813 µM (active) | GI50 (HL-60): 2.86 µM (inactive) | GI50 (Hs-578T): 2.15 µM (inactive) | GI50 (SNB-75): 1.22 µM (inactive) | GI50 (SK-OV-3): 3.25 µM (inactive) | GI50 (MDA-MB-435): 0.701 µM (active) | GI50 (HT-29): 0.35 µM (active) | GI50 (MCF7): 1.34 µM (inactive) | GI50 (SW-620): 0.266 µM (active) | GI50 (SF-295): 1.28 µM (inactive) | GI50 (T47D): 2.67 µM (inactive) | GI50 (786-0): 0.216 µM (active) | GI50 (TK-10): 2.42 µM (inactive) | GI50 (OVCAR-8): 0.5 µM (active) | GI50 (COLO 205): 0.366 µM (active) | GI50 (EKVX): 1.45 µM (inactive) | GI50 (SK-MEL-2): 1.62 µM (inactive) | GI50 (SK-MEL-5): 1.6 µM (inactive) | GI50 (SN12C): 0.412 µM (active) | GI50 (UACC-62): 1.55 µM (inactive) | GI50 (SF-539): 1.08 µM (active) | GI50 (K562): 0.631 µM (active) | GI50 (UACC-257): 1.42 µM (inactive) | GI50 (U-251): 0.513 µM (active) | GI50 (ACHN): 0.634 µM (active) | GI50 (M14): 0.303 µM (active) | GI50 (IGROV-1): 0.861 µM (active) | GI50 (NCI-H522): 0.624 µM (active) | GI50 (BT-549): 1.41 µM (inactive) | GI50 (HCC 2998): 0.836 µM (active) | GI50 (A498): 1.53 µM (inactive) | GI50 (MDA-N): 0.815 µM (active) | GI50 (HCT-15): 0.684 µM | GI50 (NCI-H460): 0.294 µM (active) | GI50 (OVCAR-4): 0.468 µM (active) | GI50 (HCT-116): 0.33 µM (active) | GI50 (OVCAR-5): 2.01 µM (inactive) | GI50 (MDA-MB-231): 1.05 µM (active) | GI50 (UO-31): 1.68 µM (inactive) | GI50 (KM12): 0.552 µM (active) | GI50 (RXF 393): 0.28 µM (active) | GI50 (SK-MEL-28): 2.4 µM (inactive) | GI50 (DU-145): 1.32 µM (inactive) | GI50 (HOP-62): 0.598 µM (active) | GI50 (NCI-H23): 1.11 µM (active) | GI50 (PC-3): 0.64 µM (active)

C#CC[C@@H]1C(=O)N(Cc2ccc(OC)cc2)[C@@H](C(C)C)C(=O)N1Cc1ccc(OC)cc1
GI50 (LOX IMVI): 36.4 µM (inactive) | GI50 (SNB-19): 64.4 µM (inactive) | GI50 (A549): 36.1 µM (inactive) | GI50 (CAKI-1): > 100 µM (inactive) | GI50 (HOP-92): 84.3 µM (inactive) | GI50 (NCI-H226): 35.2 µM (inactive) | GI50 (SF-268): 82.2 µM (inactive) | GI50 (HL-60): 3.66 µM (inactive) | GI50 (Hs-578T): > 100 µM (inactive) | GI50 (SNB-75): 24 µM (inactive) | GI50 (SK-OV-3): > 100 µM (inactive) | GI50 (MDA-MB-435): 36.1 µM (inactive) | GI50 (HT-29): 26.8 µM (inactive) | GI50 (MCF7): 19.8 µM (inactive) | GI50 (CCRF-CEM): 0.458 µM (active) | GI50 (SW-620): 40.5 µM (inactive) | GI50 (SF-295): 54.2 µM (inactive) | GI50 (T47D): 16.4 µM (inactive) | GI50 (786-0): 44.9 µM (inactive) | GI50 (TK-10): 49.9 µM (inactive) | GI50 (OVCAR-8): 46.1 µM (inactive) | GI50 (COLO 205): 19.4 µM (inactive) | GI50 (EKVX): 28.4 µM (inactive) | GI50 (SK-MEL-2): 19.9 µM (inactive) | GI50 (SK-MEL-5): 15.6 µM (inactive) | GI50 (SN12C): 53 µM (inactive) | GI50 (UACC-62): 25.2 µM (inactive) | GI50 (SF-539): 29.2 µM (inactive) | GI50 (NCI/ADR-RES): 31.2 µM (inactive) | GI50 (K562): 32.4 µM (inactive) | GI50 (UACC-257): 29.9 µM (inactive) | GI50 (U-251): 39.7 µM (inactive) | GI50 (ACHN): 45.4 µM (inactive) | GI50 (M14): 36.5 µM (inactive) | GI50 (IGROV-1): > 100 µM (inactive) | GI50 (NCI-H522): 28 µM (inactive) | GI50 (BT-549): 29.4 µM (inactive) | GI50 (HCC 2998): 47.1 µM (inactive) | GI50 (A498): 36 µM (inactive) | GI50 (MDA-N): 22.9 µM (inactive) | GI50 (HCT-15): 40.5 µM | GI50 (NCI-H460): 30.7 µM (inactive) | GI50 (OVCAR-4): 74 µM (inactive) | GI50 (HCT-116): 28.1 µM (inactive) | GI50 (OVCAR-3): 51.4 µM (inactive) | GI50 (OVCAR-5): 67.5 µM (inactive) | GI50 (MDA-MB-231): 83.2 µM (inactive) | GI50 (UO-31): 33.7 µM (inactive) | GI50 (KM12): 35.8 µM (inactive) | GI50 (RXF 393): 2.79 µM (inactive) | GI50 (SK-MEL-28): 84.7 µM (inactive) | GI50 (DU-145): 29.5 µM (inactive) | GI50 (HOP-62): > 100 µM (inactive) | GI50 (MOLT-4): 15.1 µM (inactive) | GI50 (NCI-H23): 33.2 µM (inactive) | GI50 (Malme-3M): 55.2 µM (inactive) | GI50 (PC-3): 24 µM (inactive)

CCOC(=O)NC(Nc1ccc(Cl)cn1)(C(F)(F)F)C(F)(F)F
GI50 (LOX IMVI): > 100 µM (inactive) | GI50 (SNB-19): > 100 µM (inactive) | GI50 (NCI-H226): > 100 µM (inactive) | GI50 (SF-268): > 100 µM (inactive) | GI50 (HL-60): > 100 µM (inactive) | GI50 (Hs-578T): > 100 µM (inactive) | GI50 (SNB-75): > 100 µM (inactive) | GI50 (SK-OV-3): > 100 µM (inactive) | GI50 (MDA-MB-435): > 100 µM (inactive) | GI50 (HT-29): > 100 µM (inactive) | GI50 (MCF7): > 100 µM (inactive) | GI50 (RPMI-8226): > 100 µM (inactive) | GI50 (CCRF-CEM): > 100 µM (inactive) | GI50 (SR): > 100 µM (inactive) | GI50 (T47D): > 100 µM (inactive) | GI50 (TK-10): > 100 µM (inactive) | GI50 (EKVX): > 100 µM (inactive) | GI50 (SK-MEL-2): > 100 µM (inactive) | GI50 (UACC-62): > 100 µM (inactive) | GI50 (SF-539): > 100 µM (inactive) | GI50 (K562): > 100 µM (inactive) | GI50 (UACC-257): > 100 µM (inactive) | GI50 (U-251): > 100 µM (inactive) | GI50 (ACHN): > 100 µM (inactive) | GI50 (M14): > 100 µM (inactive) | GI50 (NCI-H522): > 100 µM (inactive) | GI50 (BT-549): > 100 µM (inactive) | GI50 (HCC 2998): > 100 µM (inactive) | GI50 (A498): > 100 µM (inactive) | GI50 (MDA-N): > 100 µM (inactive) | GI50 (HCT-15): > 100 µM | GI50 (NCI-H460): > 100 µM (inactive) | GI50 (HCT-116): > 100 µM (inactive) | GI50 (OVCAR-3): > 100 µM (inactive) | GI50 (OVCAR-5): > 100 µM (inactive) | GI50 (MDA-MB-231): > 100 µM (inactive) | GI50 (UO-31): 41.4 µM (inactive) | GI50 (KM12): > 100 µM (inactive) | GI50 (RXF 393): 97.5 µM (inactive) | GI50 (SK-MEL-28): > 100 µM (inactive) | GI50 (DU-145): > 100 µM (inactive) | GI50 (HOP-62): > 100 µM (inactive) | GI50 (MOLT-4): > 100 µM (inactive) | GI50 (NCI-H23): > 100 µM (inactive) | GI50 (Malme-3M): > 100 µM (inactive)
